Source: ChEMBL document CHEMBL1201862, “PubChem BioAssay data set” (2004)
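These data come from cells grown in 96-well plates and exposed to compound for 48 hours at five concentrations. The concentration for 50% growth inhibition is given as GI50.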 The source made the active and inactive calls. No stated cut-off is given here; in the data, active = GI50 up to about 1.1 µM and inactive = higher.

Legend:
Test in all cases: DTP human tumour cell line panel, 48 h
[1] = test system: COLO 205
[2] = test system: DU-145
[3] = test system: HCT-116
[4] = test system: HCT-15
[5] = test system: HL-60
[6] = test system: HOP-92
[7] = test system: HT-29
[8] = test system: K562
[9] = test system: MDA-MB-435
[10] = test system: MDA-N
[11] = test system: MOLT-4
[12] = test system: NCI-H23
[13] = test system: OVCAR-3
[14] = test system: OVCAR-4
[15] = test system: OVCAR-5
[16] = test system: SK-MEL-2
[17] = test system: SN12C
[18] = test system: U-251
[19] = test system: SR

For `Cc1cn(C2OC(CO)C(O)C2F)c(=O)[nH]c1=O` (configuration not stated), the GI50 [1] was > 100 µM (inactive), the GI50 [2] was 70.1 µM (inactive) and the GI50 [3] was 73.3 µM (inactive). The GI50 [4] was > 100 µM, the GI50 [5] was > 100 µM (inactive) and the GI50 [6] was > 100 µM (inactive). The GI50 [7] was > 100 µM (inactive), the GI50 [8] was 59.7 µM (inactive) and the GI50 [9] was > 100 µM (inactive). For the same molecule, the GI50 [10] was > 100 µM (inactive), the GI50 [11] was 64.3 µM (inactive) and the GI50 [12] was > 100 µM (inactive). The GI50 [13] was > 100 µM (inactive), the GI50 [14] was > 100 µM (inactive) and the GI50 [15] was > 100 µM (inactive). For the same molecule, the GI50 [16] was > 100 µM (inactive), the GI50 [17] was > 100 µM (inactive) and the GI50 [18] was > 100 µM (inactive).
With `Cc1cc(N)c2cc(NC(=O)Nc3ccc4nc(C)cc(N)c4c3)ccc2n1` the GI50 [1] was > 100 µM (inactive), the GI50 [2] was > 100 µM (inactive) and the GI50 [3] was > 100 µM (inactive). For the same molecule, the GI50 [4] was > 100 µM, the GI50 [6] was > 100 µM (inactive) and the GI50 [7] was > 100 µM (inactive). The GI50 [8] was > 100 µM (inactive), the GI50 [9] was > 100 µM (inactive) and the GI50 [10] was > 100 µM (inactive). The GI50 [11] was > 100 µM (inactive), the GI50 [12] was > 100 µM (inactive) and the GI50 [13] was > 100 µM (inactive). The GI50 [14] was > 100 µM (inactive), the GI50 [15] was > 100 µM (inactive) and the GI50 [16] was > 100 µM (inactive). The GI50 [17] was > 100 µM (inactive) and the GI50 [18] was 70.6 µM (inactive).
In the case of `C[C@]12CC(c3ccccc3O1)C(C(=O)NC13CC4CC(CC(C4)C1)C3)C(=O)N2` (some centres not stated), the GI50 [1] is reported as 15.6 µM (inactive), the GI50 [2] is reported as 38.4 µM (inactive) and the GI50 [3] is reported as 18.4 µM (inactive). For the same molecule, the GI50 [4] was 25.9 µM, the GI50 [6] was 20.7 µM (inactive) and the GI50 [7] was 16.1 µM (inactive). For the same molecule, the GI50 [8] was 14 µM (inactive), the GI50 [9] was 26.2 µM (inactive) and the GI50 [10] was 18.1 µM (inactive). The GI50 [11] was 12 µM (inactive), the GI50 [12] was 23.7 µM (inactive) and the GI50 [13] was 44.9 µM (inactive). The GI50 [14] was 52.6 µM (inactive), the GI50 [15] was 19.5 µM (inactive) and the GI50 [16] was 19.9 µM (inactive). For the same molecule, the GI50 [18] was 36.6 µM (inactive).
In the case of `COC(=O)C(=O)C(C(=O)C(=O)Nc1ccc(Cl)c(Cl)c1)c1nc2ccc(C(=O)c3ccccc3)cc2nc1O` (configuration not stated), the GI50 [3] is reported as 61.4 µM (inactive), the GI50 [5] is reported as 45 µM (inactive) and the GI50 [6] is reported as > 100 µM (inactive). The GI50 [7] was 44.2 µM (inactive), the GI50 [8] was < 0.01 µM (active) and the GI50 [9] was 35.4 µM (inactive). The GI50 [10] was 42.9 µM (inactive), the GI50 [11] was 15 µM (inactive) and the GI50 [12] was 47.6 µM (inactive). For the same molecule, the GI50 [13] was 86.7 µM (inactive), the GI50 [15] was > 100 µM (inactive) and the GI50 [16] was 97.9 µM (inactive). The GI50 [17] was > 100 µM (inactive) and the GI50 [18] was 71 µM (inactive).
In the case of `O=[N+]([O-])C(=C(N1CCOCC1)N1CCOCC1)/C(Cl)=C(\Cl)Br`, the GI50 [1] is reported as 14.8 µM (inactive), the GI50 [2] is reported as 46.6 µM (inactive) and the GI50 [3] is reported as 17.1 µM (inactive). The GI50 [4] was 15.2 µM, the GI50 [5] was 3.86 µM (inactive) and the GI50 [6] was 16.2 µM (inactive). For the same molecule, the GI50 [7] was 26.8 µM (inactive), the GI50 [8] was 15.2 µM (inactive) and the GI50 [10] was 26.4 µM (inactive). For the same molecule, the GI50 [11] was 15.3 µM (inactive), the GI50 [12] was 17.3 µM (inactive) and the GI50 [13] was 14.5 µM (inactive). The GI50 [14] was 18.4 µM (inactive), the GI50 [15] was 17.1 µM (inactive) and the GI50 [16] was 21.8 µM (inactive). The GI50 [17] was 17 µM (inactive), the GI50 [19] was 17.2 µM (inactive) and the GI50 [18] was 19 µM (inactive).
For `CC(C)Cn1cnnc1NS(=O)(=O)c1cc(C(=O)NN)c(Cl)cc1S`, the GI50 [1] was > 10 µM (inactive), the GI50 [2] was > 10 µM (inactive) and the GI50 [3] was > 10 µM (inactive). The GI50 [4] was > 10 µM, the GI50 [5] was > 10 µM (inactive) and the GI50 [6] was > 10 µM (inactive). The GI50 [7] was > 10 µM (inactive), the GI50 [8] was > 10 µM (inactive) and the GI50 [9] was > 10 µM (inactive). The GI50 [10] was > 10 µM (inactive), the GI50 [11] was > 10 µM (inactive) and the GI50 [12] was > 10 µM (inactive). The GI50 [13] was > 10 µM (inactive), the GI50 [14] was > 10 µM (inactive) and the GI50 [15] was > 10 µM (inactive). The GI50 [16] was > 10 µM (inactive), the GI50 [17] was > 10 µM (inactive) and the GI50 [18] was > 10 µM (inactive).
In the case of `NC1=Nc2ccccc2Sc2nncn21`, the GI50 [1] is reported as > 100 µM (inactive), the GI50 [2] is reported as > 100 µM (inactive) and the GI50 [3] is reported as > 100 µM (inactive). For the same molecule, the GI50 [4] was > 100 µM, the GI50 [5] was > 100 µM (inactive) and the GI50 [6] was > 100 µM (inactive). For the same molecule, the GI50 [7] was > 100 µM (inactive), the GI50 [8] was > 100 µM (inactive) and the GI50 [9] was > 100 µM (inactive). For the same molecule, the GI50 [11] was > 100 µM (inactive), the GI50 [12] was > 100 µM (inactive) and the GI50 [13] was > 100 µM (inactive). For the same molecule, the GI50 [14] was > 100 µM (inactive), the GI50 [15] was > 100 µM (inactive) and the GI50 [16] was > 100 µM (inactive). For the same molecule, the GI50 [17] was > 100 µM (inactive), the GI50 [19] was > 100 µM (inactive) and the GI50 [18] was > 100 µM (inactive).
For `COP(=O)(OC)C12CCOCCN1c1ccccc1C2=O` (configuration not stated), the GI50 [1] was > 100 µM (inactive), the GI50 [2] was > 100 µM (inactive) and the GI50 [3] was > 100 µM (inactive). For the same molecule, the GI50 [4] was > 100 µM, the GI50 [5] was > 100 µM (inactive) and the GI50 [6] was > 100 µM (inactive). For the same molecule, the GI50 [7] was > 100 µM (inactive), the GI50 [9] was > 100 µM (inactive) and the GI50 [10] was > 100 µM (inactive). The GI50 [11] was > 100 µM (inactive), the GI50 [12] was > 100 µM (inactive) and the GI50 [13] was > 100 µM (inactive). The GI50 [14] was > 100 µM (inactive), the GI50 [15] was > 100 µM (inactive) and the GI50 [16] was > 100 µM (inactive). The GI50 [17] was > 100 µM (inactive) and the GI50 [18] was > 100 µM (inactive).
With `CCOC(=O)Nn1cnnc1C` the GI50 [1] was > 100 µM (inactive), the GI50 [3] was > 100 µM (inactive) and the GI50 [4] was > 100 µM. For the same molecule, the GI50 [6] was > 100 µM (inactive), the GI50 [7] was > 100 µM (inactive) and the GI50 [8] was > 100 µM (inactive). For the same molecule, the GI50 [9] was > 100 µM (inactive), the GI50 [10] was > 100 µM (inactive) and the GI50 [11] was > 100 µM (inactive). The GI50 [12] was > 100 µM (inactive), the GI50 [13] was > 100 µM (inactive) and the GI50 [14] was > 100 µM (inactive). The GI50 [15] was > 100 µM (inactive), the GI50 [16] was > 100 µM (inactive) and the GI50 [17] was > 100 µM (inactive). For the same molecule, the GI50 [19] was > 100 µM (inactive) and the GI50 [18] was > 100 µM (inactive).
For `OC(c1ccc(F)cc1)C(F)(F)c1nc2ccccc2o1` (configuration not stated), the GI50 [1] was > 100 µM (inactive), the GI50 [2] was 47 µM (inactive) and the GI50 [3] was > 100 µM (inactive). For the same molecule, the GI50 [4] was > 100 µM, the GI50 [5] was > 100 µM (inactive) and the GI50 [6] was 21.7 µM (inactive). The GI50 [7] was > 100 µM (inactive), the GI50 [8] was 30.8 µM (inactive) and the GI50 [9] was > 100 µM (inactive). The GI50 [11] was 46.6 µM (inactive), the GI50 [12] was > 100 µM (inactive) and the GI50 [14] was > 100 µM (inactive). For the same molecule, the GI50 [16] was > 100 µM (inactive), the GI50 [19] was > 100 µM (inactive) and the GI50 [18] was > 100 µM (inactive).
For `O=C1C(=C/C=C2/SC(c3ccccc3)(c3ccccc3)c3ccccc32)C(=O)c2ccccc21`, the GI50 [1] was > 100 µM (inactive), the GI50 [2] was > 100 µM (inactive) and the GI50 [3] was > 100 µM (inactive). For the same molecule, the GI50 [4] was > 100 µM, the GI50 [6] was > 100 µM (inactive) and the GI50 [7] was > 100 µM (inactive). The GI50 [8] was > 100 µM (inactive), the GI50 [9] was > 100 µM (inactive) and the GI50 [10] was > 100 µM (inactive). For the same molecule, the GI50 [11] was > 100 µM (inactive), the GI50 [12] was > 100 µM (inactive) and the GI50 [13] was > 100 µM (inactive). For the same molecule, the GI50 [14] was > 100 µM (inactive), the GI50 [15] was > 100 µM (inactive) and the GI50 [17] was > 100 µM (inactive). The GI50 [18] was > 100 µM (inactive).
In the case of `c1ccc(/N=C2/SC(c3ccccc3)(c3ccccc3)c3ccccc32)cc1`, the GI50 [1] is reported as > 100 µM (inactive), the GI50 [2] is reported as > 100 µM (inactive) and the GI50 [3] is reported as 64.3 µM (inactive). The GI50 [4] was > 100 µM, the GI50 [5] was > 100 µM (inactive) and the GI50 [6] was > 100 µM (inactive). The GI50 [7] was > 100 µM (inactive), the GI50 [8] was > 100 µM (inactive) and the GI50 [9] was > 100 µM (inactive). The GI50 [10] was > 100 µM (inactive), the GI50 [11] was > 100 µM (inactive) and the GI50 [12] was > 100 µM (inactive). For the same molecule, the GI50 [13] was > 100 µM (inactive), the GI50 [14] was > 100 µM (inactive) and the GI50 [15] was > 100 µM (inactive). For the same molecule, the GI50 [16] was > 100 µM (inactive), the GI50 [17] was > 100 µM (inactive) and the GI50 [18] was 10.4 µM (inactive).
